According to US20260131324A1, “A CONTAINER FOR IN VITRO DRUG TESTING” (National University of Singapore, priority 2022, published 2026):

Tests used:
[1] = Proof-of-concept model: diffusion through agarose hydrogel container (version 1.0) in modified flow-through cell; format: physicochemical; conditions: plateau at about 7 h, PBS with Tween 80
Description: FIG. 4A illustrates a hydrogel container 402 (left) and a modified flow-through cell 404 (right) used as a proof-of-concept model for the diffusion experiment shown in the first flow chart 300A of FIG. 3. The proof-of-concept model was designed to affirm the discriminative power of an agarose hydrogel under continuous media flow. Serving as a physicochemical barrier between drug and media, it is supposed to generate data ascertaining differences in diffusion behaviour and gel interaction of closely related drug formulations. For this, Actrapid® (regular human insulin, hexamer) and Apidra® (insulin glulisine) were chosen as model peptide formulations for the initial setup. m-Cresol, present in both formulations, was quantified as well, serving as an internal standard.
A cylindrical gel that forms both the physicochemical barrier and pocket was prepared with the help of custom-made plastic receptacles. The gel consists of 2% (w/w) agarose dissolved in PBS. […] After cooling at room temperature, the gel is formed and ready to use. […]
FIG. 4B illustrates an assay setup for the proof-of-concept model of FIG. 4A for in vitro drug testing. […] Quantification of insulin and m-cresol in the medium was then carried out by HPLC. Subsequently, the cumulative diffusion of the model drugs was calculated by comparing the diffused amount with the initially added drug concentration. […]

[2] = Diffusion through hydrogel container (version 2.0) in USP apparatus IV, PBS medium; format: physicochemical; conditions: at 8.25 h; caffeine stock solution 4 mg/mL, 1 mL; 100 mL PBS; 34 C
Method: The compendial flow-through cell 504 of the USP apparatus IV 502 is an enclosed system with a heating mantle that allows a controlled medium flow from the bottom to the top of the cell 504. The ring 114 was mounted onto a cylindrical mould and the gel composition was filled into the mould. A punch was used to create interior pockets of similar size. The drug formulation 106 was then injected into the interior pocket of the receptacle 102, and the ring 114 was sealed with a rubber plug 116. The USP apparatus IV 502, as well as the various flow-through cells 504, have been described by various pharmacopoeias and related literature. For this diffusion experiment, a SOTAX CP7-35 Piston Pump 506, alone with a fraction collector 508 and the SOTAX CE7 dissolution system, was used. Media 510 was filled into the reservoir 512 with magnetic stirrers running at 150 rpm. The dissolution apparatus was operated in a closed-loop configuration with a constant flow of 8±0.4 mL/min for all experiments. […] Caffeine was quantified with a ultraviolet-visible (UV/Vis) spectrometer. Subsequently, the cumulative diffusion of caffeine was calculated by comparing the diffused amount with the initially added drug concentration. […] In the next step, new containers 100 were evaluated with Actrapid® and […]®. […]

SMILES: Cc1cccc(O)c1 [m-cresol, m-Cresol]
- cumulative diffusion of m-cresol, maximum ([1]; m-cresol inside Apidra): 88±0.2%
- cumulative diffusion of m-cresol, plateau ([1]; m-cresol inside the Actrapid formulation): 84±1.0%

SMILES: Cn1c(=O)c2c(ncn2C)n(C)c1=O [caffeine]
- cumulative diffusion of caffeine [2]: around 101±3%
